Data as given in ChEMBL document CHEMBL3507680, “University of Dundee, Gates Library screen for HepG2 cell viability”.

Assay: Human HepG2 cell viability assay in 384 well format
Type: toxicity, cell-based
Set-up: dose 125 nL, time 70.5 hour; concentration not given beside the values
Details: HepG2 cells, read-out: Inhibition

Compound | cytotoxicity at 70.5 h
CC(C)n1c(=O)c2sccc2n(CC(=O)Nc2cccc(Cl)c2)c1=O | -12.8%
O=C(CC1Cn2ncnc2NC1=O)Nc1cccc(C(F)(F)F)c1 (stereo not given) | -11.2%
CC1=Nc2c(c(O)nn2C(C)C)C(c2cnn(C)c2)S1 (stereo not given) | -11%
Cc1ccc(C)c(-c2[nH]c3ccccc3c2C(=O)O)c1 | -12.7%
COc1ccc(C)cc1-c1[nH]c2ccccc2c1C(=O)O | -10.2%
Cn1c(=O)[nH]c(=O)n2c(CC(=O)Nc3ccc(Cl)c(Cl)c3)cnc12 | -12.5%
CCNC(=O)c1ccc2c(c1)nc1n2CCN(C(C)C)C1 | -9.53%
CC(=O)N1CCN(C(=O)c2sc(-c3ccccc3F)nc2C)CC1 | 16.5%
O=C1CC(c2ccsc2)c2sc(C(=O)O)c(-c3ccc(F)cc3)c2N1 (stereo not given) | -4.46%
O=C(CSC1CCc2ccccc2NC1=O)NC1CC1 (stereo not given) | -2.66%
O=C(Cn1ccc2c(Cl)cccc21)N1CCCC1 | -1.08%
O=C(CSC1CCc2ccccc2NC1=O)NCCc1ccc(O)cc1 (stereo not given) | -2.27%
CC(C)n1[nH]c(=O)c2c1NC(=O)CC2c1ccc(S(C)(=O)=O)cc1 (stereo not given) | -17.1%
O=C(CSC1CCc2ccccc2NC1=O)NCc1ccccc1 (stereo not given) | 6.38%
NC(=O)c1ccc(NC(=O)Cn2cc(-c3ccccc3)ncc2=O)cc1 | -17.2%
Cn1cc(NC(=O)Cn2cc(-c3ccccc3)ncc2=O)cn1 | 19.6%
Cc1c(C2CC(=O)Nc3c2cnn3C(C)(C)C)cnn1C (stereo not given) | -11.8%
Cc1cnc(NC(=O)CSC2CCc3ccccc3NC2=O)s1 (stereo not given) | 1.54%
Cc1nc(-c2ccccc2F)sc1C(=O)N1CCC(=O)CC1 | -8.75%
O=C(CN1CCN(CC(O)C2CC2)CC1)NCc1ccccc1 (stereo not given) | -8.44%
OC(CN1CCN(Cc2ccccc2)CC1)C1CC1 (stereo not given) | -10.4%
CC(C)N1CC[C@@H]2[C@H](COCC3CC3)CN(C)C(=O)[C@@H]2CC1 | 4.19%
O=C(c1cnccn1)N1CC[C@@H]2CO[C@@H](CN3CCCC3)[C@@H]2C1 | -5.22%
Cc1noc(C)c1CNCC1COCc2c(-c3ccoc3)nnn2C1 (stereo not given) | -9.07%
CCc1ncnc2c1CCN(Cc1nccs1)CC2 | -7.4%
CN(C)c1ncnc2c1CCN(Cc1nccs1)CC2 | -6.81%
O=C(C[C@@H]1COC[C@H]2CN(C3CCCC3)C[C@@H]12)N1CCCCO1 | -0.83%
O=S(=O)(NC[C@]12COC[C@H]1CN(CCc1ccccc1)C2)C1CC1 | -2.87%

Compound | cytotoxicity at 70.5 h
Cc1nc(N2CCCC2)nc2c1CCN(Cc1ccsc1)CC2 | 6.56%
CCN1C[C@@H]2[C@@H](OC)CCN(C(=O)c3cc(C)nn3CC)[C@@H]2C1 | 8.5%
CNC(=O)[C@H]1C[C@H]2OCC[C@H]2N(CCOc2ccc(Cl)cc2)C1 | -1.59%
c1ncn(Cc2cn3c(n2)CN(CC2CCCCC2)CC3)n1 | -3.74%
O=C(Cc1ccsc1)N1CCCC2(COCCN(CC3CC3)C2)C1 (stereo not given) | 1.23%
O=C1[C@H]2CN(CC3CCOCC3)C[C@H]2CN1Cc1cccc(F)c1 | 4.65%
CCOCC(=O)N1CCC2(CC1)COC(COCc1ccccn1)C2 (stereo not given) | 4.72%
COCC(=O)N1CCC2(CC1)COC(COCc1ccccn1)C2 (stereo not given) | 1.98%
Cc1nc(N2CCOCC2)nc2c1CCN(Cc1ccsc1)CC2 | 1.35%
CCCS(=O)(=O)N1Cc2nccn2CC(CN(C)C)C1 (stereo not given) | -10.3%
Cc1noc([C@@H]2C[C@H]3CN(Cc4scnc4C)C[C@H]3O2)n1 | -4.75%
COc1cccc(C(=O)N2CC[C@@H]3[C@H](CC2)N(C)CCS3(=O)=O)c1 | -5.98%
Cc1nc(N2CCCC2)nc2c1CCN(Cc1ccoc1)CC2 | -6.88%
O=C(c1ccoc1)N1CCC2(CC1)COC(COc1ccccn1)C2 (stereo not given) | -4.94%
CN(C)C(=O)[C@@H]1C[C@H]2OCC[C@H]2N(CCOc2ccc(Cl)cc2)C1 | -4.26%
CCOCc1cnc2n1CCN(Cc1scnc1C)C2C (stereo not given) | -3.25%
CN(C)[C@@H]1CCN(C(=O)NC2CCCC2)[C@H]1Cc1ccncc1 | -9.4%
Cc1cccc(CN2C[C@H]3CCC[C@@]3(COCc3csc(C)n3)C2)n1 | -6.32%
Cc1cccc(N2CCC3(CCN(Cc4ccccn4)CC3)CC2)n1 | -9.07%
Cc1cccc(CN2CCc3c(COCC(=O)N(C)C)nn(C)c3C2)n1 | 0.676%
CN(C)Cc1cn2c(n1)CN(CC1CCCC1)CC2 | -6.79%
CC(C)(C)NC[C@@H]1CCC[C@@H]2CN(Cc3csnn3)C[C@@H]21 | -2.73%
Cc1cnc(N2CC[C@@H]3CN(Cc4ccncc4)CCO[C@@H]3C2)nc1 | 8.21%
c1ccc(N2CC[C@@H]3CN(Cc4ccncc4)CCO[C@@H]3C2)cc1 | -1.73%
Cc1ncsc1CN1CCn2c(COc3cccnc3)cnc2C1C (stereo not given) | -2.69%
CN(Cc1cccnc1)C[C@@H]1OC[C@H]2CN(Cc3ccoc3)CC[C@H]21 | -0.956%
Cc1cc(CN2C[C@@H](N3CCN(C)CC3)[C@H]3OCCC[C@H]32)oc1C | -4.18%
